Assay: Stability study of green tea catechins: incubation in Na-Pi buffer pH 7.4 at 37° C., HPLC
Format: physicochemical
Description: Samples were prepared according to the following method. Briefly, each sample was treated with acetic acid (30% final concentration) for 30 min and then added to an aqueous solution containing 10% acetonitrile, 0.5 mg/mL EDTA and 0.5 mg/mL ascorbic acid. The mix was then centrifuged for 30 min at 14′000×g and the supernatant analysed by HPLC. Following this protocol allows the complete recovery of all catechins.
Green tea catechins were determined by reverse phase HPLC using an analytical method based on the ISO FDIS 14502-2 method. The HPLC system used was a 1100 series Hewlett-Packard (Geneva, Switzerland) model equipped with an ultraviolet-visible photodiode array and a fluorimetric detector. Catechins were detected by UV absorption at 280.4 nm except for catechins and epicatechin that were detected by fluorescence (excitation: 280 nm; emission: 310 nm). Samples (10 μl) were separated on a Zorbax RX—C18 column (4.6 mm internal diameter×250 mm length, Agilent technologies). Flow rate was 1.0 mL/min.
Sample concentration of green tea catechins (C, EC, EgC, EgCg, ECg) were calculated based on the corresponding calibration curve and reported as % of the initial value (sample at t0). Since caffeine, endogenous to green tea samples, is stable under the selected assay conditions, it was used as internal standard for all calculations. […]

For O=C1O[C@H]([C@@H](O)CO)C(O)=C1O [vitamin C, ascorbic acid], the protection of catechins (0.2 mM, at least for 2 h of incubation, data not shown) was “a certain protection” and the “vitamin C concentration at which the plateau of stabilisation is reached” value (stabilisation during 6 h, GTE 0.1%, pH 7.4, 37° C) was 2.5 mM.
